These results are taken from patent US6835371B1 (priority 1997, dated 2004).

“And” between values parts separate entries of the source, which are not always exact repeats. Equal entries are not always repeated. Where two headings read alike, the source gives them in different places.

For orientation: Hill coefficient means the slope factor of the fitted curve. Broadly, the Ki is a measure of affinity in units of concentration, obtained from inhibition or displacement. Broadly, the IC50 is the concentration that inhibits the measured activity by half. Broadly, the ED50 is the dose that gives a 50% effect, or the effect in half of the subjects.

The target in assay [1] is T1, human dopamine transporter (hDAT) (Homo sapiens, UniProt Q01959). Put plainly: biochemical. Type of assay: binding.
The target in assay [2] is T2, human norepinephrine transporter (hNET) (Homo sapiens, UniProt P23975). Description: biochemical. The class given is binding.
Assay [3] has as its target T1, human dopamine transporter (hDAT). Put plainly: cell-based.
The target of assay [4] is T2, human norepinephrine transporter (hNET). Description: cell-based.
Assay [5] deals with male Swiss-Webster mice. Description: animal or person. The class given is in vivo. Conditions: for ED50: Mus musculus, read-out: ED50 (dose producing ½ maximal stimulant activity); for ED50 / Dose at estimated maximum effect / Doses with significant differences against the vehicle group (p<0.05): ip; for Maximal effect/cocaine maximal effect ratio (ME/CME) / Maximum effect, horizontal activity / Dose at estimated maximum effect / Doses with significant differences against the vehicle group (p<0.05): mouse, in vivo.

Assay [6] relates to male Swiss-Webster mice. Put plainly: Cocaine interaction study (locomotor activity). Type of assay: in vivo. The following applies: for AD50 (dose attenuating cocaine-induced stimulation by 50%): IP, 30-min period; for AD50 (dose attenuating cocaine-induced stimulation by 50%) / Doses with significant differences against the cocaine group (p<0.05): 20 mg/kg cocaine IP; for Doses with significant differences against the cocaine group (p<0.05): planned comparisons on log10 horizontal activity counts.

T2 sequence (P23975 whole entry): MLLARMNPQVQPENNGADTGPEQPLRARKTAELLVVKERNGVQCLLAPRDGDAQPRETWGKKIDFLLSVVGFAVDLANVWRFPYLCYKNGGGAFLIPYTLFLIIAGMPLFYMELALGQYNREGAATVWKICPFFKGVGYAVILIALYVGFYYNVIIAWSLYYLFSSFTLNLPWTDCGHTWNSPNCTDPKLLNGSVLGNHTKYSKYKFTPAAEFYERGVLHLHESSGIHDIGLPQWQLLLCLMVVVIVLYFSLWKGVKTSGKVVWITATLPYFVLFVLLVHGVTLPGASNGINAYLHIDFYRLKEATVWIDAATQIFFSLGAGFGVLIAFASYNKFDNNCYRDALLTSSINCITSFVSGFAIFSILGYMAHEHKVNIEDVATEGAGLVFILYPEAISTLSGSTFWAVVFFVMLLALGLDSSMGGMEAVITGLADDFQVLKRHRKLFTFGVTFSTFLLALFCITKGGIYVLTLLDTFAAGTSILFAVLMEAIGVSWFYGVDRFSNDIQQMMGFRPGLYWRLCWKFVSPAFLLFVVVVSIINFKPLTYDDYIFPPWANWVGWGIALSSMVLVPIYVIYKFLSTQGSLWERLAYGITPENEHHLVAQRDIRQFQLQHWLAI
T1 sequence (Q01959 whole entry): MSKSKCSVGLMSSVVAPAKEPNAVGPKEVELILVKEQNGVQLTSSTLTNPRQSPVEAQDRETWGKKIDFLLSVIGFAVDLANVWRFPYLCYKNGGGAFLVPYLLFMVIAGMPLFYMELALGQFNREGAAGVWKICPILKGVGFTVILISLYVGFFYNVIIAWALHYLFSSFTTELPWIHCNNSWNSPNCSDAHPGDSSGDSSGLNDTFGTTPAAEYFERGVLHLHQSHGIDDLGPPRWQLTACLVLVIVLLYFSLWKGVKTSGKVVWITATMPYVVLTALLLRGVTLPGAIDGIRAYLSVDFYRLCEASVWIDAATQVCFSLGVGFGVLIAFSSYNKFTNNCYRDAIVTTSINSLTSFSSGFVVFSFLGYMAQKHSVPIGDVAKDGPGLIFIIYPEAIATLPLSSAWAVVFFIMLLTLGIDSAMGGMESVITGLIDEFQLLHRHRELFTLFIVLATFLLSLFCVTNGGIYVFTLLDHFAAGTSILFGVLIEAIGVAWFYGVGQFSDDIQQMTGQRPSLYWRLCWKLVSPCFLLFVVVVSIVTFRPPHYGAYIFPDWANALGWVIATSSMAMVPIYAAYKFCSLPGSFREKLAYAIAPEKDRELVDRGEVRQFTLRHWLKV

For the compound `Fc1ccc(C(OCCCCN2CCN(c3ccccc3F)CC2)c2ccc(F)cc2)cc1` [Compound 31526], in assay [1], the “Binding discrimination ratio NET/DAT” value stood at 10.8, the “Binding discrimination ratio SERT/DAT” value came to 0.8 and the Hill coefficient is −0.86 ± 0.06. In addition, the Ki in assay [1] ([125I]RTI-55 binding Ki, DAT) worked out at 38.7 nM. In assay [2], this compound had a Hill coefficient of −0.91 ± 0.09. The Ki in assay [2] ([125I]RTI-55 binding Ki, NET) amounted to 417 nM. Moreover, in assay [3], the “Discrimination Ratio DAT Binding/Reuptake” value is 11.9, the “Discrimination ratio uptake/binding (DA)” value is 11.9, half-maximal inhibition (IC50) required 460 nM and the affinity corresponds to a Ki of 460 ± 140 nM. Besides, the Ki in assay [4] worked out at 700 ± 240 nM. Besides, the midpoint of inhibition in assay [4] ([3H]NE Uptake IC50), the IC50, lay at 700 nM. In addition, the IC50 in assay [4] (read-out: [3H]NE Uptake IC50) was found to be 700 nM. In the assay on male Swiss-Webster mice [5], the ED50 stood at 0.015 mg/kg; the “Maximal effect/cocaine maximal effect ratio (ME/CME)” value turned out to be 0.49; the “Maximum effect, horizontal activity” value was 2716.1 counts/10 min; the “Dose at estimated maximum effect” value was 0.64 mg/kg. In addition, the “Doses with significant differences against the vehicle group (p<0.05)” value in the assay on male Swiss-Webster mice [5] is listed as 1 mg/kg. The “Attenuation of cocaine-induced locomotor activity” value in the assay on male Swiss-Webster mice [6] (0.1-10 mg/kg IP 20 min before 20 mg/kg cocaine IP) is on record as “did not attenuate locomotor activity induced by 20 mg/kg cocaine”.
As to `OC1(c2ccc(Br)cc2)CCN(CCCCOC(c2ccc(F)cc2)c2ccc(F)cc2)CC1` [Compound 31530], in assay [1], the “Binding discrimination ratio NET/DAT” value turned out to be 64.1, the “Binding discrimination ratio SERT/DAT” value is given as 9.7 and the Hill coefficient is recorded as −0.59 ± 0.06. Also, the Ki in assay [1] ([125I]RTI-55 binding Ki, DAT) is 3.9 nM and 10 nM. In assay [2], this compound yielded a Hill coefficient of −0.97 ± 0.30. Besides, in assay [3], the “Discrimination ratio uptake/binding (DA)” value is listed as 110.5. Also, the IC50 in assay [3] (HEK-hDAT cells, read-out: [3H]Dopamine Uptake IC50) is 431 nM. Moreover, in assay [3] (Table 2, read-out: Reuptake [3H]DA (Ki ± SD)), the Ki was determined as 431 ± 88 nM. For the same compound, in assay [4] (HEK-hNET cells, read-out: [3H]NE Uptake IC50), the IC50 stood at 1870 nM. In assay [4] (Table 2, read-out: Reuptake [3H]NE (Ki ± SD)), the Ki was 1870 ± 670 nM. Also, in the assay with male Swiss-Webster mice [5], the ED50 was found to be 2.42 mg/kg; the “Maximal effect/cocaine maximal effect ratio (ME/CME)” value worked out at 0.38; the “Maximum effect, horizontal activity” value is 2132.6 counts/10 min; the “Dose at estimated maximum effect” value is on record as 6.00 mg/kg. In the assay with male Swiss-Webster mice [6], the “AD50 (dose attenuating cocaine-induced stimulation by 50%)” value was found to be 15.75 mg/kg and the “Doses with significant differences against the cocaine group (p<0.05)” value amounted to 30 mg/kg.
As for `Fc1ccc(C(OCCCCN2CCN(c3cccc(C(F)(F)F)c3)CC2)c2ccc(F)cc2)cc1` [Compound 31532], in assay [1], the “Binding discrimination ratio NET/DAT” value is 6.8. The “Binding discrimination ratio SERT/DAT” value in assay [1] came to 6.8. Moreover, the Hill coefficient in assay [1] is recorded as −0.87 ± 0.05; in assay [2], −0.80 ± 0.03. The Ki in assay [1] ([125I]RTI-55 binding Ki, DAT) was 32.5 nM; in assay [1] (read-out: [125I]RTI-55 binding Ki, DAT), 32.5 nM; in assay [2] ([125I]RTI-55 binding Ki, NET), 222 nM; in assay [2] (read-out: [125I]RTI-55 binding Ki, NET) it was 222 nM; in assay [3], 380 ± 130 nM; in assay [4], 310 ± 100 nM. Further, the “Discrimination Ratio DAT Binding/Reuptake” value in assay [3] is on record as 11.7. For the same compound, the “Discrimination ratio uptake/binding (DA)” value in assay [3] came to 11.7. The IC50 in assay [3] worked out at 380 nM; in assay [4] ([3H]NE Uptake IC50), 310 nM; in assay [4] (read-out: [3H]NE Uptake IC50) it was 310 nM. Besides, the “ID50 (dose producing ½ maximal depressant activity)” value in the assay with male Swiss-Webster mice [5] (IP, 20 min pretreatment, 0-30 min, descending portion 10 to 100 mg/kg) amounted to 112.95 mg/kg. Moreover, in the assay with male Swiss-Webster mice [5], the “Doses with significant differences against the vehicle group (p<0.05)” value turned out to be 100 mg/kg. In addition, the “AD50 (dose attenuating cocaine-induced stimulation by 50%)” value with male Swiss-Webster mice [6] turned out to be 18.35 mg/kg. Further, the “Doses with significant differences against the cocaine group (p<0.05)” value with male Swiss-Webster mice [6] turned out to be 100 mg/kg.
